In patent EP0768085A1, “ANTIBACTERIAL AGENT” (DAIICHI PHARMACEUTICAL CO., LTD., priority 1994, dated 1996) one finds MIC data, which are given here for 27 molecules.

≈ marks a conversion by molar mass, not a printed value.

Common to all, as to assay type: cell-based
In assay [1] the test system is Staphylococcus aureus 209-P. Briefly: Antibacterial activity (IC), Mueller-Hinton broth, 96-well microplate (Example 4, Table 39). To be noted: 37°C, 18 hours. The method, then: (§1) A suitable amount of a sample was dissolved in dimethylsulfoxide (DMSO), and the resultant solution was diluted with the same amount of sterilized distilled water to prepare a bulk sample of 1,000 µg/ml. Mueller-Hinton broth (product of DIFCO) was dispensed into each well of 96-well microplate. Thereafter, the bulk specimen was added to the first well of a row, and successively diluted (10-fold each time) with sterilized distilled water. Separately, a bacterial cell suspension for the test (Staphylococcus aureus 209-P) which had been cultured in the above-mentioned broth overnight at 37°C was inoculated to each well so that the final inoculation amount of 10^6 CFU/ml was attained. The final concentrations of the samples were 100, 10, and 1 µg/ml.
(§2) The antibacterial action was evaluated by the inhibitory concentration (hereinafter abbreviated as IC) at which propagation of the bacteria cultured at 37°C for 18 hours was inhibited. Inhibition was determined by the turbidity of the medium. The expressions "IC≤100", "≤10", and "≤1" indicate that MIC-equivalent values obtained at the succesive […] dilution of the sample are 100-10 µg/ml, 10-1 µg/ml, and not more than 1 µg/ml, respectively. […] (In the subsequent Examples, the same rule applies correspondingly.) Table 39

Assay [2] relates to Staphylococcus aureus TI-1. In words: Antibacterial activity (IC), broth microplate as in Example 4 (Example 5, Table 40). To be noted: TI1, 18 h. The procedure: as §1, §2
In a manner similar to that described in Example 4, antibacterial activity of the invention compound was determined. The bacterium used for the test was Staphylococcus aureus TI-1.

Assay [3] deals with Staphylococcus aureus (209-P). Briefly: Antibacterial activity (IC), agar as in Example 8 (Example 15, Table 48). To be noted: 18 h. The procedure: as §2
(§3) A suitable amount of a sample was dissolved in dimethylsulfoxide (DMSO), after which the resulting solution was diluted with the same amount of sterilized distilled water to prepare a bulk sample of 1,000 µg/ml. Separately, a bacterial liquid for the test (methicillin-resistant Staphylococcus aureus (MRSA) isolated from humans) which had been cultured in Mueller-Hinton broth (product of DIFCO) was prepared and inoculated to a Mueller-Hinton agar (product of DIFCO) containing the sample so that the final inoculation amount of 10^6 CFU/ml was achieved. The final concentrations of the samples were 100, 10, and 1 µg/ml.
(§4) After culturing at 37°C for 18 hours, the antibacterial activity was evaluated in terms of IC in a manner similar to that described in Example 4.
The bacterium used for the test was Staphylococcus aureus (209-P).

Assay [4] deals with Streptococcus aureus (TI-1). Briefly: Antibacterial activity (IC), agar as in Example 8 (Example 16, Table 49). The note with it: 18 h. The method, then: as §2, §3, §4
In a manner similar to that described in Example 8, antibacterial activity of the invention compound was determined. The bacterium used for the test was […] aureus (TI-1).

Regarding `CC(Oc1ccc(Oc2nc3ccccc3s2)cc1)C(=O)C(C#N)c1ccc(Cl)cc1Cl` (stereo not shown) [Compound No. 11], the MIC in assay [1] and in assay [2] was 10 to 100 µg/mL (≈ 20.7 to 207 µM) in each case. As for `N#CC(C(=O)COc1ccc(Oc2ccc(C(F)(F)F)cn2)cc1)c1cccc(Cl)c1` (stereo not shown) [Compound No. 13], the MIC in assay [1] and in assay [2] was 10 to 100 µg/mL (≈ 22.4 to 224 µM) throughout. For `CC(Oc1ccc(Oc2ccc(C#N)cc2F)cc1)C(=O)C(C#N)c1ccccc1` (stereo not shown) [Compound No. 30], the MIC in assay [1] and in assay [2] was 10 to 100 µg/mL (≈ 25 to 250 µM) in each case.

As for `CC(Oc1ccc(Oc2ccc(C#N)cc2F)cc1)C(=O)C(C#N)c1ccc(Cl)cc1Cl` (stereo not shown) [Compound No. 31], the MIC in assay [1] and in assay [2] was 10 to 100 µg/mL (≈ 21.3 to 213 µM) in each case. `CC(Oc1ccc(Oc2ccc(C(F)(F)F)cc2Cl)cc1)C(=O)C(C#N)C(=O)N(C)c1ccccc1` (stereo not shown) [Compound No. 36, 4-[4-(2-chloro-4-trifluoromethylphenoxy)phenoxy]-2-methylphenylamidecarbonile-3-oxopentanitrile]: the minimum inhibitory concentration (MIC) in assay [2] lay in the range of 1 to 10 µg/mL (≈ 1.93 to 19.3 µM). Consider `CC(Oc1ccc(Oc2ncc(C(F)(F)F)cc2Cl)cc1)C(=O)C(C#N)C(=O)N(Cc1ccccc1)Cc1ccccc1` (stereo not shown) [Compound No. 38, 4-[4-(3-chloro-5-trifluoromethylpyridyloxy)phenoxy]-2-dibenzylamidecarbonile-3-oxopentanitrile], for which, in assay [1], the MIC was 1 to 10 µg/mL (≈ 1.64 to 16.4 µM).

Turning to `CC(Oc1cccc(Oc2ccc(C(F)(F)F)cn2)c1)C(=O)C(C#N)c1ccc(Cl)c(Cl)c1` (stereo not shown) [Compound No. 102, 2-(3,4-dichlorophenyl)-3-oxo-4-[3-(5-trifluoromethyl-2-pyridyloxy)phenoxy]pentanonitrile], the MIC is 1 to 10 µg/mL (≈ 2.02 to 20.2 µM) in assay [3] and at most 1 µg/mL in assay [4]. As for `COc1ccc(C(C#N)C(=O)C(C)Oc2cccc(Oc3ccc(C(F)(F)F)cc3Cl)c2)cc1` (stereo not shown) [Compound No. 107, 4-[3-(2-chloro-4-trifluoromethylphenoxy)-phenoxy]-2-(4-methoxyphenyl)-3-oxopentanonitrile], the MIC in assay [3] and in assay [4] was 10 to 100 µg/mL (≈ 20.4 to 204 µM) each time. `CC(Oc1ccc(Oc2nc(Cl)c(Cl)cc2Cl)cc1)C(=O)C(C#N)c1ccc(Cl)cc1Cl` (stereo not shown) [compound 7]: the MIC lay in the range of 10 to 100 µg/mL (≈ 18.8 to 188 µM) in assay [1] and 1 to 10 µg/mL (≈ 1.88 to 18.8 µM) in assay [2]. The matching figures for `CC(Oc1ccc(Oc2ccc(C(F)(F)F)cn2)cc1)C(=O)C(C#N)c1cccc(C(F)(F)F)c1` (stereo not shown) [compound 8]: 10 to 100 µg/mL (≈ 20.2 to 202 µM) and 1 to 10 µg/mL (≈ 2.02 to 20.2 µM). For `N#CC(C(=O)COc1ccc(Oc2ncc(C(F)(F)F)cc2Cl)cc1)c1cccc(Cl)c1` (stereo not shown) [compound 12], the MIC is 10 to 100 µg/mL (≈ 20.8 to 208 µM) in assay [1] and 1 to 10 µg/mL (≈ 2.08 to 20.8 µM) in assay [2]. Turning to `CC(Oc1ccc(Oc2ncc(C(F)(F)F)cc2Cl)cc1)C(=O)C(C#N)c1ccccc1` (stereo not shown) [compound 18], the results for the MIC in assay [1] and in assay [2] were 10 to 100 µg/mL (≈ 21.7 to 217 µM) and 1 to 10 µg/mL (≈ 2.17 to 21.7 µM), respectively. For the molecule `CC(Oc1ccc(Oc2ncc(C(F)(F)F)cc2Cl)cc1)C(=O)C(C#N)c1cccs1` (stereo not shown) [compound 19], the MIC in assay [1] and in assay [2] was 10 to 100 µg/mL (≈ 21.4 to 214 µM) throughout. `CC(Oc1ccc(Oc2ncc(C(F)(F)F)cc2Cl)cc1)C(=O)C(C#N)c1nc(Cl)cc(Cl)n1` (stereo not shown) [compound 21]: the MIC in assay [1] lay within 10 to 100 µg/mL (≈ 18.8 to 188 µM); in assay [2], 1 to 10 µg/mL (≈ 1.88 to 18.8 µM).

In assay [1], `CC(Oc1ccc(Oc2ncc(C(F)(F)F)cc2Cl)cc1)C(=O)C(C#N)c1c(Cl)cccc1Cl` (stereo not shown) [compound 23] yielded a minimal inhibitory concentration (MIC) of 10 to 100 µg/mL (≈ 18.9 to 189 µM). Regarding `CC(Oc1ccc(Oc2ncc(C(F)(F)F)cc2Cl)cc1)C(=O)C(C#N)c1c(F)cccc1Cl` (stereo not shown) [compound 24], the MIC in assay [1] and in assay [2] was 10 to 100 µg/mL (≈ 19.5 to 195 µM) in each case. `CC(Oc1ccc(Oc2ncc(C(F)(F)F)cc2Cl)cc1)C(=O)C(C#N)c1ccc(F)cc1F` (stereo not shown) [compound 25]: the MIC in assay [1] and in assay [2] was 10 to 100 µg/mL (≈ 20.1 to 201 µM) each time. Consider `CC(Oc1ccc(Oc2ncc(C(F)(F)F)cc2Cl)cc1)C(=O)C(C#N)c1cc(F)ccc1F` (stereo not shown) [compound 26], for which the MIC in assay [1] and in assay [2] was 10 to 100 µg/mL (≈ 20.1 to 201 µM) in each case.

Molecule `CC(Oc1ccc(Oc2ncc(C(F)(F)F)cc2Cl)cc1)C(=O)C(C#N)c1c(F)cccc1F` (stereo not shown) [compound 28] registered an MIC in assay [2] of 10 to 100 µg/mL (≈ 20.1 to 201 µM). Take `CC(Oc1ccc(Oc2ccc([N+](=O)[O-])cc2F)cc1)C(=O)C(C#N)c1ccc(Cl)cc1Cl` (stereo not shown) [compound 29]: the MIC in assay [1] and in assay [2] was 10 to 100 µg/mL (≈ 20.4 to 204 µM) in each case. Molecule `CCN(Cc1ccccc1)C(=O)C(C#N)C(=O)C(C)Oc1ccc(Oc2ncc(C(F)(F)F)cc2Cl)cc1` (stereo not shown) [compound 39] gave an MIC in assay [1] of 10 to 100 µg/mL (≈ 18.3 to 183 µM). As to `CC(Oc1ccc(Oc2ncc(C(F)(F)F)cc2Cl)cc1)C(=O)C(C#N)C(=O)N1CCCc2ccccc21` (stereo not shown) [compound 40], the minimum inhibitory concentration (MIC) in assay [1] was in the range of 10 to 100 µg/mL (≈ 18.4 to 184 µM). Regarding `CC(Oc1cc(Oc2ccc(C(F)(F)F)cc2Cl)ccc1Cl)C(=O)C(C#N)C(=O)N1CCCC1` (stereo not shown) [compound 169], the MIC in assay [3] and in assay [4] was 10 to 100 µg/mL (≈ 19.4 to 194 µM) in each case. In the case of `CC(Oc1cc(Oc2ccc(C(F)(F)F)cc2Cl)ccc1Cl)C(=O)C(C#N)C(=O)N1CCOCC1` (stereo not shown) [compound 172], in assay [3], the MIC lay within 10 to 100 µg/mL (≈ 18.8 to 188 µM). On the same count and under the same terms, the result for `CC(Oc1cc(Oc2ccc(C(F)(F)F)cc2Cl)ccc1Cl)C(=O)C(C#N)C(=O)N(C)c1ccccc1` (stereo not shown) [compound 175] reads 1 to 10 µg/mL (≈ 1.81 to 18.1 µM). For the molecule `CC(Oc1cccc(Oc2ccc(C(F)(F)F)cc2Cl)c1)C(=O)C(C#N)c1cccc(Cl)c1` (stereo not shown) [compound 207], the MIC in assay [3] and in assay [4] was at most 1 µg/mL each time. In the case of `CC(Oc1cccc(Oc2ccc(C(F)(F)F)cc2Cl)c1)C(=O)C(C#N)C(=O)N1CCCCC1` (stereo not shown) [compound 208], the minimum inhibitory concentration (MIC) in assay [3] and in assay [4] was 1 to 10 µg/mL (≈ 2.02 to 20.2 µM) throughout.

One may read the MIC as the least concentration at which growth counts as inhibited.
